Experimental data from patent publication EP1247803A2, “Indolinone compounds suitable for modulation of protein kinases” (Sugen, Inc., priority 1996, dated 1998).

Tests used:
FLK-1 receptor = molecular target: T1, FLK-1 receptor (Mus musculus, UniProt P35918); assay: FLK-1 ELISA (kinase activity of the FLK-1 receptor in FLK-1/NIH3T3 cells, VEGF stimulated); type: cell-based; parameters: concentration or dose not given beside the values
T1 construct: expressed in transfected cells; host or cells: NIH3T3 C7#3
T1 sequence (P35918 20-1345): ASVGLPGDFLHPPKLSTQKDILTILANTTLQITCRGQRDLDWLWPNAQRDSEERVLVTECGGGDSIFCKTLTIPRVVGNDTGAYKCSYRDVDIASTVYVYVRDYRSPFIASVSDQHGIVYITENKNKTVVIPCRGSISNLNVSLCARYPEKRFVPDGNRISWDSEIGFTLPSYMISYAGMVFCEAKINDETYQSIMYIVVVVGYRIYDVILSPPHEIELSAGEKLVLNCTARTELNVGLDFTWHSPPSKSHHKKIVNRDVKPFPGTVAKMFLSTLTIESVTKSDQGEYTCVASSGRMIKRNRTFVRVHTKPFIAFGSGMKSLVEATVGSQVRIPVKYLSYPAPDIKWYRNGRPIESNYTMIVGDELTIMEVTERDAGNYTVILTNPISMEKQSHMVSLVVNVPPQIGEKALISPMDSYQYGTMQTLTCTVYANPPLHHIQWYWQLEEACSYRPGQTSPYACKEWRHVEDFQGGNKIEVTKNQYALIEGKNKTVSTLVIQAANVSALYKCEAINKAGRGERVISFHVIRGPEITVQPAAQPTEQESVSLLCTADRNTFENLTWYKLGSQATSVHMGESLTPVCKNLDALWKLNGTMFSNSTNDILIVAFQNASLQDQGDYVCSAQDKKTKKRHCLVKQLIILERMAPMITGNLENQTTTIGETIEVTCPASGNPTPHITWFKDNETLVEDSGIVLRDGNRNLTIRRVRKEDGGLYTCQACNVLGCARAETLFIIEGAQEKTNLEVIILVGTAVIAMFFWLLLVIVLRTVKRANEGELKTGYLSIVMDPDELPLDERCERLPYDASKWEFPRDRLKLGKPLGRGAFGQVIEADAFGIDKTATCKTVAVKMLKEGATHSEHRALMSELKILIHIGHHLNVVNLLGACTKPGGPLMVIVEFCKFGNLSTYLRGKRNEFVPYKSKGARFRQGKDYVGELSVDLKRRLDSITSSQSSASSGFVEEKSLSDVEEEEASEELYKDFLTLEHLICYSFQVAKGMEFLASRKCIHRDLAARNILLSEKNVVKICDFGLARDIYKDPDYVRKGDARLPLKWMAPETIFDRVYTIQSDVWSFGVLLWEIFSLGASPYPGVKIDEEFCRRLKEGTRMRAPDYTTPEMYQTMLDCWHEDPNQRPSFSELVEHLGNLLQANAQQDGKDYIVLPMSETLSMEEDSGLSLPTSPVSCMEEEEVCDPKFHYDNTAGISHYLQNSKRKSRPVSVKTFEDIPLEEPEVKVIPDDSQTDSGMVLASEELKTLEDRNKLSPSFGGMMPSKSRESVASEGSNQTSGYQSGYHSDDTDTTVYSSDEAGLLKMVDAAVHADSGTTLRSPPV
How it was run: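 An ELISA using affinity-purified rabbit anti-FLK-1 antiserum on anti-rabbit IgG-coated plates measured VEGF-stimulated FLK-1 kinase activity. NIH3T3 C7#3 cells carrying FLK-1 were serum-starved (0.1% FBS) overnight, then exposed to compound (final 1:200 dilution, 0.5% DMSO) for two hours at 37 °C.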

MET = MET biochemical kinase assay; parameters: species or system human; concentration or dose not given beside the values
How it was run: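 Immunocaptured MET autophosphorylation, read colorimetrically (TMB) via HRP anti-phosphotyrosine antibody. Kinase reaction initiated with buffer containing ATP and divalent metals after compound addition to plate-bound receptor from lysates.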

Structure (SMILES)	Fik Kinase %Inhibition (FLK-1 receptor) [%]	Met Kinase % Inhibition (MET) [%]
COc1c([N+](=O)[O-])cc(C=C2C(=O)Nc3ccc(Br)c(C)c32)cc1C(C)(C)C [10733/C03]	17.0	29.3
CNS(=O)(=O)c1ccc2c(c1)C(=Cc1cc(C(C)(C)C)c(OC)c(C(C)(C)C)c1)C(=O)N2 [10733/D04]	15.5	37.7
Cc1c(Br)ccc2c1C(=Cc1cc(C(C)(C)C)c(OCc3ccccc3)c(C(C)(C)C)c1)C(=O)N2 [10733/C05]	11.5	23.2
CC(C)(C)c1cc(C=C2C(=O)Nc3ccc(S(=O)(=O)Nc4ccc(C(F)(F)F)cc4)cc32)cc(Cl)c1OCc1ccccc1 [10732/E10]	16.7	1.6
Cc1cc(C=C2C(=O)Nc3ccc(Br)c(C)c32)cc(C)c1OCc1ccccc1 [10733/C07]	1.2	10.2
COc1c(C)cc(C=C2C(=O)Nc3c(Br)cc(Br)cc32)cc1C [10733/A06]	-16.6	33.7
COc1c(I)cc(C=C2C(=O)Nc3ccc(S(=O)(=O)Nc4ccc(C(F)(F)F)cc4)cc32)cc1C(C)(C)C [10732/E11]	16.2	41.4
CC(C)c1cc(C=C2C(=O)Nc3ccc(S(=O)(=O)Nc4ccc(C(F)(F)F)cc4)cc32)cc(C(C)C)c1Oc1ccccc1 [10732/E04]	15.8	8.2
COc1c(Br)cc(C=C2C(=O)Nc3ccc(S(=O)(=O)Nc4ccc(C(F)(F)F)cc4)cc32)cc1C(C)(C)C [10732/E07]	21.3	15.2
CNS(=O)(=O)c1ccc2c(c1)C(=Cc1ccco1)C(=O)N2 [10718/D10]	15.0	55.3
COc1c(C(C)C)cc(C=C2C(=O)Nc3ccc(CCCl)cc32)cc1C(C)C [10732/G03]	0.8	38.1
CC(C)c1cc(C=C2C(=O)Nc3ccc(CCCl)cc32)cc(C(C)C)c1Oc1ccccc1 [10732/G04]	12.6	24.9
CNS(=O)(=O)c1ccc2c(c1)C(=Cc1cc(C)c(OC)c(C)c1)C(=O)N2 [10733/D06]	17.9	-19.4
COc1c(I)cc(C=C2C(=O)Nc3ccc(CCCl)cc32)cc1C(C)(C)C [10732/G11]	10.9	63.0
O=C1Nc2ccc(I)cc2C1=Cc1cc(Br)ccc1O [10733/B09]	-2.6	64.5
CNS(=O)(=O)c1ccc2c(c1)C(=Cc1cc(I)c(OC)c(C(C)(C)C)c1)C(=O)N2 [10732/D11]	18.8	48.6
CC(C)(C)c1cc(C=C2C(=O)Nc3ccc(I)cc32)cc(C(C)(C)C)c1OCc1ccccc1 [10733/B05]	-1.1	61.3
COc1c(C)cc(C=C2C(=O)Nc3ccc(Br)c(C)c32)cc1C [10733/C06]	4.7	4.1

Structure (SMILES)	Fik Kinase %Inhibition (FLK-1 receptor) [%]	Met Kinase % Inhibition (MET) [%]
CNS(=O)(=O)c1ccc2c(c1)C(=Cc1cc(I)c(OCc3ccccc3)c(C(C)(C)C)c1)C(=O)N2 [10733/D02]	3.1	63.4
Cc1c(Br)ccc2c1C(=Cc1cc([N+](=O)[O-])ccc1O)C(=O)N2 [10733/C10]	-7.6	20.5
COc1c(O)ccc(C=C2C(=O)Nc3ccc(Br)c(C)c32)c1[N+](=O)[O-] [10733/C11]	42.8	35.1
Cc1cc(C=C2C(=O)Nc3ccc(I)cc32)cc(C)c1OCc1ccccc1 [10733/B07]	1.2	73.5
CNS(=O)(=O)c1ccc2c(c1)C(=Cc1ccc(O)c(OC)c1[N+](=O)[O-])C(=O)N2 [10733/D11]	1.0	31.6
COc1c([N+](=O)[O-])cc(C=C2C(=O)Nc3ccc(I)cc32)cc1C(C)(C)C [10733/B03]	3.1	62.2
CC(C)(C)c1cc(C=C2C(=O)Nc3ccc(I)cc32)cc(I)c1OCc1ccccc1 [10733/B02]	-7.4	74.6
CC(C)(C)c1cc(C=C2C(=O)Nc3ccc(S(=O)(=O)Nc4ccc(C(F)(F)F)cc4)cc32)cc(I)c1OCc1ccccc1 [10733/E02]	0.8	60.5
COc1c(O)ccc(C=C2C(=O)Nc3c(Br)cc(Br)cc32)c1[N+](=O)[O-] [10733/A11]	15.0	43.5
COc1c(Cl)cc(C=C2C(=O)Nc3ccc(S(=O)(=O)Nc4ccc(C(F)(F)F)cc4)cc32)cc1C(C)(C)C [10732/E09]	15.3	18.1
O=C1Nc2ccc(S(=O)(=O)Nc3ccc(C(F)(F)F)cc3)cc2C1=CC(c1cccs1)C(F)(F)F (stereo not drawn) [10732/E02]	13.1	33.3
CNS(=O)(=O)c1ccc2c(c1)C(=Cc1cc(Br)cc(OC)c1O)C(=O)N2 [10733/D08]	-8.3	80.0
COc1c(Cl)cc(C=C2C(=O)Nc3ccc(S(=O)(=O)N4CCOCC4)cc32)cc1C(C)(C)C [10732/F09]	25.6	79.7
COc1c(Br)cc(C=C2C(=O)Nc3ccc(S(=O)(=O)N4CCOCC4)cc32)cc1C(C)(C)C [10732/F07]	31.0	65.5
CNS(=O)(=O)c1ccc2c(c1)C(=Cc1cc([N+](=O)[O-])ccc1O)C(=O)N2 [10733/D10]	2.9	22.8
CNS(=O)(=O)c1ccc2c(c1)C(=Cc1cc([N+](=O)[O-])c(OC)c(C(C)(C)C)c1)C(=O)N2 [10733/D03]	33.2	32.8
COc1cccc(O)c1C=C1C(=O)Nc2c(Br)cc(Br)cc21 [10717/A10]	-3.3	71.6
COc1c(C(C)C)cc(C=C2C(=O)Nc3ccc(S(=O)(=O)Nc4ccc(C(F)(F)F)cc4)cc32)cc1C(C)C [10732/E03]	16.7	3.9
